Legend:
[1] = The drug is tested on Eubacterium ventriosum strain: ATCC27560 for biotransformation. The drug concentrations were measured before and after a 12-h incubation by liquid-chromatography-coupled mass spectrometry (LC–MS); assay type: ADME; design: dose 2 uM, timepoint 0 vs 12 hours; conditions: 2 µM
[2] = The drug is tested on Eubacterium hallii strain: DSM3353 for biotransformation. The drug concentrations were measured before and after a 12-h incubation by liquid-chromatography-coupled mass spectrometry (LC–MS); conditions: anaerobutyricum hallii, 2 µM
[3] = The drug is tested on Clostridium asparagiforme strain: DSM15981 for biotransformation. The drug concentrations were measured before and after a 12-h incubation by liquid-chromatography-coupled mass spectrometry (LC–MS); assay type: ADME; design: dose 2 uM, timepoint 0 vs 12 hours; conditions: enterocloster asparagiformis, 2 µM
[4] = The drug is tested on Enterococcus faecalis strain: V583 for biotransformation. The drug concentrations were measured before and after a 12-h incubation by liquid-chromatography-coupled mass spectrometry (LC–MS); conditions: 2 µM
[5] = The drug is tested on Eggerthella lenta strain: ATCC25559 for biotransformation. The drug concentrations were measured before and after a 12-h incubation by liquid-chromatography-coupled mass spectrometry (LC–MS); conditions: 2 µM
[6] = victivallis vadensis, 12 h, 2 µM
Description: The drug is tested on Victivallis vadensis strain: ATCC BAA-548 for biotransformation. The drug concentrations were measured before and after a 12-h incubation by liquid-chromatography-coupled mass spectrometry (LC–MS)

[7] = The drug is tested on Salmonella typhimurium strain: LT2 for biotransformation. The drug concentrations were measured before and after a 12-h incubation by liquid-chromatography-coupled mass spectrometry (LC–MS); conditions: salmonella enterica subsp. enterica, 2 µM
[8] = The drug is tested on Clostridium spiroforme strain: DSM1552 for biotransformation. The drug concentrations were measured before and after a 12-h incubation by liquid-chromatography-coupled mass spectrometry (LC–MS); conditions: thomasclavelia spiroformis, 2 µM
[9] = The drug is tested on Clostridium hathewayi strain: DSM13479 for biotransformation. The drug concentrations were measured before and after a 12-h incubation by liquid-chromatography-coupled mass spectrometry (LC–MS); conditions: hungatella hathewayi, 2 µM

Measured: Bacterial Biotransformation

CC(C)(C)NCC(O)COc1cccc2c1CC(O)C(O)C2 (centres undefined) [NADOLOL]
Compound NOT metabolized: [1] | [2] | [3] | [4]

CC(=O)O[C@H]1C(=O)[C@@]2(C)[C@H]([C@H](OC(=O)c3ccccc3)[C@]3(O)C[C@H](OC(=O)[C@H](O)[C@@H](NC(=O)c4ccccc4)c4ccccc4)C(C)=C1C3(C)C)[C@]1(OC(C)=O)CO[C@@H]1C[C@@H]2O [PACLITAXEL]
Compound NOT metabolized: [5] | [6] | [2] | [3] | [4]

CC(C)(C)NC[C@H](O)COc1ccccc1C1CCCC1.CC(C)(C)NC[C@H](O)COc1ccccc1C1CCCC1.O=S(=O)(O)O [PENBUTOLOL SULFATE]
Compound NOT metabolized: [1] | [6] | [2] | [3] | [7] | [4]

CCc1nc(N)nc(N)c1-c1ccc(Cl)cc1 [PYRIMETHAMINE]
Compound NOT metabolized: [5] | [1] | [2] | [3] | [4]

C=C[C@H]1CN2CC[C@H]1C[C@H]2[C@H](O)c1ccnc2ccc(OC)cc12.C=C[C@H]1CN2CC[C@H]1C[C@H]2[C@H](O)c1ccnc2ccc(OC)cc12.O.O.O=S(=O)(O)O [QUININE SULFATE]
Compound NOT metabolized: [1] | [8] | [2] | [4] | [9]

CCC(=O)NCC[C@@H]1CCc2ccc3c(c21)CCO3 [RAMELTEON]
Compound NOT metabolized: [5] | [1] | [2] | [4]

O=C(NC(Cc1cc(=O)[nH]c2ccccc12)C(=O)O)c1ccc(Cl)cc1 (centres undefined) [REBAMIPIDE]
Compound NOT metabolized: [6] | [2] | [3] | [4]

COC(=O)[C@H]1[C@H]2C[C@@H]3c4[nH]c5cc(OC)ccc5c4CCN3C[C@H]2C[C@@H](OC(=O)c2cc(OC)c(OC)c(OC)c2)[C@@H]1OC [RESERPINE]
Compound NOT metabolized: [5] | [6] | [2] | [3] | [4]

CCN(CC)CCNC(=O)c1cc(S(C)(=O)=O)ccc1OC [TIAPRIDE]
Compound NOT metabolized: [2] | [4]

Cc1ccc(/C(=C\CN2CCCC2)c2ccccn2)cc1 [TRIPROLIDINE]
Compound NOT metabolized: [5] | [1] | [2] | [4]

O=C(O[C@H]1C[C@H]2CC[C@@H](C1)[N+]21CCCC1)C(O)(c1ccccc1)c1ccccc1.[Cl-] [TROSPIUM CHLORIDE]
Compound NOT metabolized: [5] | [1] | [6] | [2] | [4]

— ChEMBL document CHEMBL5303573, “Mapping human microbiome drug metabolism by gut bacteria and their genes” (Nature, 2019)
